# Where two headings read alike, the source gives them in different places.
# Experiments:
# A375 cells = test: A375 cell proliferation inhibition; assay type: cell-based; settings: read-out: IC50/nM, inhibitory activity on A375 cells
# Method: A375 cells (ATCC, CRL-1619) were cultured in DMEM complete medium (+10% FBS) in a CO2 incubator at 37° C. for 48 h. The cells were trypsinized and counted, and then the density was adjusted to 1.67×10^4 cells/mL. 90 μL (1500 cells) of cells were inoculated into each well of a 96-well transparent bottom plate, and the plate was transferred to a CO2 incubator and the cells were cultured overnight at 37° C. After the cells were incubated overnight, 10 μL of the diluted compound (final concentration starting from 10 μM, 3-fold dilution, 11 concentrations) was added to each well using a multi-channel pipette. The positive control was a serum-free medium containing DMSO. After mixing evenly, the cells were placed in a CO2 incubator at 37° C. for 72 h. After the incubation, the CellCounting-Lite®2.0 kit detection solution (Vazyme, DD1101-03) was taken out and returned to room temperature. 100 μL of CellCounting-Lite2.0 detection solution was added to each well, the plate was sealed with a sealing film, and the plate was placed on a shaker for shaking for 15 min (the whole process should be kept away from light). The Luminescence module of the microplate reader (BMG LRBTECH) was used to detect the fluorescence signal value LUM of each well. The formula
# [formula] • was used to calculate the inhibition rate of the compound. The Graphpad software log (inhibitor) vs. response—Variable slope (four parameters) equation was used to perform fitting analysis and calculate the IC50 value of the sample. The ordinate of the data is the percentage of inhibition rate, and the abscissa is the logarithm of the sample concentration (Log10).
# [1] = Mouse pharmacokinetic test; assay type: in vivo, ICR mice; settings: for Kp: brain/plasma, read-out: brain/plasma ratio; for Vd: read-out: Vdss
# Method: (§1) • 1.1 Experimental animals: male ICR mice, 20-25 g, 12 mice/compound, purchased from Chengdu Ddossy Experimental Animals Co., Ltd. • 1.2 Experimental design: on the day of the test, 12 ICR mice were randomly grouped according to their body weights. The animals were fasted with water available for 12 to 14 h one day before the administration and were fed 4 h after the administration.
# Before and after administration, 0.06 mL of blood was taken from the orbit under isoflurane anesthesia and placed in an EDTAK2 centrifuge tube for centrifugation at 5000 rpm at 4° C. for 10 min, followed by plasma collection. The blood collection time points for the intravenous administration group and intragastric administration group were 0, 5 min, 15 min, 30 min, 1 h, 2 h, 4 h, 7 h and 24 h. Before analysis and detection, all samples were stored at −80° C., and a quantitative analysis of samples was performed using LC-MS/MS.
# [2] = Beagle dog pharmacokinetic test; assay type: in vivo, beagle dogs; settings: for F: beagle dog
# Method: • Experimental animals: male beagle dogs, about 8-11 kg, 6 beagle dogs/compound, purchased from Beijing Marshall Biotechnology Co., Ltd. • Experimental method: on the day of the experiment, 6 beagle dogs were randomly grouped according to their body weights. The animals were fasted with water available for 12 to 14 h one day before the administration and were fed 4 h after the administration. Administration was performed as per Table 1.
# (DMA: dimethylacetamide; Solutol: polyethylene glycol-15-hydroxystearate; Saline: physiological saline; MC: Methylcellulose solution) Before and after the administration, 1 ml of blood was taken from the jugular veins or limb veins, and placed in an EDTAK2 centrifuge tube. Centrifugation was performed at 5000 rpm at 4° C. for 10 min, and plasma was collected. The blood collection time points for the intravenous group and intragastric group were both 0 min, 5 min, 15 min, 30 min, 1 h, 2 h, 4 h, 6 h, 8 h, 10 h, 12 h, 24 h, 48 h, and 72 h. Before analysis and detection, all samples were stored at −80° C. The samples were analyzed quantitatively by LC-MS/MS.
# Rat pharmacokinetic test = assay type: in vivo, SD rats
# Method: as §1, with “5.1” for “1.1”, “SD rats, about 220” for “ICR mice, 20-25”, “6-8 weeks old, 6 rats/compound,” for “12 mice/compound,”, “5.2” for “1.2”, “experiment, 6 SD rats” for “test, 12 ICR mice”, “weights; the” for “weights. The”
# Before and after the administration, 0.1 ml of blood was taken from the orbit of the animals under isoflurane anesthesia and placed in an EDTAK2 centrifuge tube. The blood was centrifuged at 5000 rpm and 4° C. for 10 min to collect plasma. Blood sampling time points for the intravenous administration group: 0, 5 min, 15 min, 30 min, 1 h, 2 h, 4 h, 6 h, 8 h, and 24 h; blood sampling time points for the intragastric administration group: 0, 5 min, 15 min, 30 min, 1 h, 2 h, 4 h, 6 h, 8 h and 24 h. Before analysis and detection, all samples were stored at −80° C.
# MDR1 = MDR1 (Homo sapiens (Human), UniProt P08183); settings: cited from earlier work
# BCRP = BCRP (Homo sapiens (Human), UniProt Q9UNQ0); settings: cited from earlier work
# [3] = in vivo; cited from earlier work
# [4] = male, ICR, po, mouse, i.g. 10 mg/kg
# [5] = male, ICR, iv, mouse plasma, i.v. 2.5 mg/kg
# [6] = male, ICR, iv, mouse plasma, i.v. 2.5 mg/kg, read-out: AUC0-t
# [7] = male, ICR, po, mouse plasma, i.g. 10 mg/kg
# [8] = male, ICR, po, mouse plasma, i.g. 10 mg/kg, read-out: AUC0-t
# [9] = beagle dog plasma, i.v. 0.5 mg/kg
# [10] = rat plasma, intragastric administration 10 mg/kg
# [11] = rat plasma, intravenous administration 2.5 mg/kg
# Chain of BCRP (Q9UNQ0 whole entry, species assumed): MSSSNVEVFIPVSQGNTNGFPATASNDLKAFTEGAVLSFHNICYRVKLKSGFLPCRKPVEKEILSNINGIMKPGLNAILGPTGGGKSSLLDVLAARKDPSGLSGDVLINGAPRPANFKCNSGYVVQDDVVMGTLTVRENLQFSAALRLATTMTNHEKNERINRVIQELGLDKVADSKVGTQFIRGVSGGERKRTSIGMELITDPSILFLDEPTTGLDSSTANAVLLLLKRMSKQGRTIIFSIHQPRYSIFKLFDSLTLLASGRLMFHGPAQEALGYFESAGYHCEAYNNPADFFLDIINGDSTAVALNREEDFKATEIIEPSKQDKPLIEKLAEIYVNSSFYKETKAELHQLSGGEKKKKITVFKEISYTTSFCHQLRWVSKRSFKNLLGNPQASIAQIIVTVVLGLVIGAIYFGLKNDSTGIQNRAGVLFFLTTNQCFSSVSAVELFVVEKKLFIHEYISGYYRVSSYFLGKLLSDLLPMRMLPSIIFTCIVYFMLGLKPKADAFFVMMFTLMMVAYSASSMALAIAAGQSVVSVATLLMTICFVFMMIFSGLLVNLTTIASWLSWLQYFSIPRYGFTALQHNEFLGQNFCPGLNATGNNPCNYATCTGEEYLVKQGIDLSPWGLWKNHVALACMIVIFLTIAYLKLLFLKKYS
# Chain of MDR1 (P08183 whole entry, species assumed): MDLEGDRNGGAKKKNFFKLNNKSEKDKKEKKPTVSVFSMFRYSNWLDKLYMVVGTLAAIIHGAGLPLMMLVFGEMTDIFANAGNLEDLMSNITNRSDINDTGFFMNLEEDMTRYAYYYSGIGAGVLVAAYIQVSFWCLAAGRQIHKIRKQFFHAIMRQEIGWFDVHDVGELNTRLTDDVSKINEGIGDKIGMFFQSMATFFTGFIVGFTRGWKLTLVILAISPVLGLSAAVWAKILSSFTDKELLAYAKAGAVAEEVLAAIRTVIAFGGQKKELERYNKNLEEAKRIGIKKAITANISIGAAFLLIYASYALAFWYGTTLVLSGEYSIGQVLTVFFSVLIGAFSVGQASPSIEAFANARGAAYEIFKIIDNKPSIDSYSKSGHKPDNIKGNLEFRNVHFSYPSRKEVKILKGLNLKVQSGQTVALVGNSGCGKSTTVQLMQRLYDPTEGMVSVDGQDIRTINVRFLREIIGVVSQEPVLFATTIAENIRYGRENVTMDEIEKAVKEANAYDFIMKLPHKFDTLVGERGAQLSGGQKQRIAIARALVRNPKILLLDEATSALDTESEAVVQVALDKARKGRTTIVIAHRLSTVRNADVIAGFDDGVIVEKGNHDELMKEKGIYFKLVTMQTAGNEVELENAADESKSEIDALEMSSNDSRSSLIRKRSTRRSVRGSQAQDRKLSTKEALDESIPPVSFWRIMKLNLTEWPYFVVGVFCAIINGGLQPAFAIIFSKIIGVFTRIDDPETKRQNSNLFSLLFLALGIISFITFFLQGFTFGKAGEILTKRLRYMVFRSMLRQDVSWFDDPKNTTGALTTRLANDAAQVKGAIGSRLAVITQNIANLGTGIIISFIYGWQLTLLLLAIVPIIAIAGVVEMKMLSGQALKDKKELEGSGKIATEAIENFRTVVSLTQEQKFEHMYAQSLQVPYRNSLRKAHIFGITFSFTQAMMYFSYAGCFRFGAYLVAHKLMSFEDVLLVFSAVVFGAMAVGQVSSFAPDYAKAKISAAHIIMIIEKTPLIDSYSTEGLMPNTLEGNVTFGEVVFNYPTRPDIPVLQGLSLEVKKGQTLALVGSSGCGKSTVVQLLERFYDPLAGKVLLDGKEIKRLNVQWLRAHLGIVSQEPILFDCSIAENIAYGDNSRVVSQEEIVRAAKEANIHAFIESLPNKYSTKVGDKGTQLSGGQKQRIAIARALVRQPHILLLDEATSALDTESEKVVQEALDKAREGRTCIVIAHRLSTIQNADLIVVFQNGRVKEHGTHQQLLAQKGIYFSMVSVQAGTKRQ
SMILES,IC50 (A375 cells; 72 h) [nM],"IC50 (A375 cells; Homo sapiens, A-375, 72 h) [nM]","Kp [1, 4]","clearance [1, 5] [mL/min/kg]","half-life [1, 5] [h]","AUC(0-t) [1, 6] [µg·h/mL]","Vd [1, 5] [L/kg]","half-life [1, 7] [h]","AUC(0-t) [1, 8] [µg·h/mL]","F ([1]; mouse, i.g. 10 mg/kg) [%]",further results
"N#Cc1c(NS(=O)(=O)N2CC3(CCC3F)C2)ccc(F)c1Oc1ccc2ncn(CC(F)F)c(=O)c2c1 (single isomer, unassigned) [Compound 40]",≤ 10,–,–,–,–,–,–,–,–,–,–
Cn1cnc2ccc(Oc3c(F)ccc(NS(=O)(=O)N4CC5(CC5)C4)c3C#N)cc2c1=O [Compound 5],–,≤ 10,0.0181,0.0627,30.2,290,0.159,19.2,1080,93.6,–
COn1cnc2ccc(Oc3c(F)ccc(NS(=O)(=O)N4CC5(CCC5)C4)c3C#N)cc2c1=O [Compound 7],–,–,0.0425,0.144,9.79,240,0.111,13.7,792,92.6,–
COn1cnc2ccc(Oc3c(F)ccc(NS(=O)(=O)N4CC5(CC5)C4)c3C#N)cc2c1=O [Compound 8],–,–,0.0173,0.147,8.59,247,0.0941,12.9,1300,≥98,–
N#Cc1c(NS(=O)(=O)N2CC3(CCC3)C2)ccc(F)c1Oc1ccc2ncn(CC(F)F)c(=O)c2c1 [Compound 10],–,≤ 10,0.0107,0.117,12,272,0.111,11.8,914,83.9,"F ([2]; i.g. 3 mg/kg): 79.7%; clearance ([2]; male, iv, beagle dog plasma, i.v. 0.5 mg/kg): 0.425 mL/min/kg; AUC(0-t) ([2]; male, iv, beagle dog plasma, i.v. 0.5 mg/kg, read-out: AUC0-t): 40.9 µg·h/mL; Vd ([2]; male, iv, beagle dog plasma, i.v. 0.5 mg/kg, read-out: Vdss): 0.155 L/kg; AUC(0-t) ([2]; male, po, beagle dog plasma, i.g. 3 mg/kg, read-out: AUC0-t): 97.8 µg·h/mL"
Cn1cnc2ccc(Oc3c(F)ccc(NS(=O)(=O)N4CCC5CC54)c3C#N)cc2c1=O (centres unmarked) [Compound 17],–,≤ 10,–,–,–,–,–,–,–,–,–
N#Cc1c(NS(=O)(=O)N2CC3(CCC3)C2)ccc(F)c1Oc1ccc2ncn3ccnc3c2c1 [Compound 22],–,≤ 10,–,–,–,–,–,–,–,–,–
N#Cc1c(NS(=O)(=O)N2CC3(CCC3)C2)ccc(F)c1Oc1ccc2ncn(C3COC3)c(=O)c2c1 [Compound 33],≤ 10,–,–,–,–,–,–,–,–,–,–
N#Cc1c(NS(=O)(=O)N2CC3(CCC3)C2)cc(F)c(F)c1Oc1ccc2ncn(CCF)c(=O)c2c1 [Compound 39],≤ 10,–,–,–,–,–,–,–,–,–,"AUC(0-t) ([2]; beagle dog plasma, i.g. 3 mg/kg): 84.281 µg·h/mL; AUC(0-t) [2, 9]: 31.095 µg·h/mL; CL [2, 9]: 0.541 mL/min/kg; Vdss [2, 9]: 0.08 L/kg; F ([2]; i.g. 3 mg/kg): 90.3%"
Cc1cnc2c3cc(Oc4c(F)ccc(NS(=O)(=O)N5CC6(CCC6)C5)c4C#N)ccc3ncn12 [Compound 44],≤ 10,–,–,–,–,–,–,–,–,87.9,"AUC(0-t) ([1]; mouse plasma, i.g. 10 mg/kg): 442.783 µg·h/mL; T1/2 ([1]; mouse plasma, i.g. 10 mg/kg): 14.2 h; AUC(0-t) ([1]; mouse plasma, i.v. 2.5 mg/kg): 125.977 µg·h/mL; CL ([1]; mouse plasma, i.v. 2.5 mg/kg): 0.335 mL/min/kg; T1/2 ([1]; mouse plasma, i.v. 2.5 mg/kg): 7.5 h; Vdss ([1]; mouse plasma, i.v. 2.5 mg/kg): 0.135 L/kg; brain/plasma ratio ([1]; mouse, i.g. 10 mg/kg): 0.0162"
N#Cc1c(NS(=O)(=O)N2CC3(CCC3)C2)cc(F)c(F)c1Oc1ccc2ncn3ccnc3c2c1 [Compound 46],≤ 10,–,–,–,–,–,–,–,–,–,–
N#Cc1c(NS(=O)(=O)N2CC3(CC3)C2)cc(F)c(F)c1Oc1ccc2ncn(CCF)c(=O)c2c1 [Compound 50],≤ 10,–,–,–,–,–,–,–,–,–,–
N#Cc1c(NS(=O)(=O)N2CC[C@@H](F)C2)cc(F)c(F)c1Oc1ccc2ncn(CCF)c(=O)c2c1 [Compound 51],≤ 10,–,–,–,–,–,–,–,–,–,–
CCCS(=O)(=O)Nc1ccc(F)c(C(=O)c2c[nH]c3ncc(-c4ccc(Cl)cc4)cc23)c1F [Vemurafenib],–,–,–,–,–,–,–,–,–,–,MDR1 efflux ratio (MDR1): 83; BCRP efflux ratio (BCRP): 495; total brain-to-plasma ratio [3]: 0.004

# The next lines start with results.
IC50 (A375 cells; 72 h) [nM],"IC50 (A375 cells; Homo sapiens, A-375, 72 h) [nM]","Kp [1, 4]","clearance [1, 5] [mL/min/kg]","half-life [1, 5] [h]","AUC(0-t) [1, 6] [µg·h/mL]","Vd [1, 5] [L/kg]","half-life [1, 7] [h]","AUC(0-t) [1, 8] [µg·h/mL]","F ([1]; mouse, i.g. 10 mg/kg) [%]",SMILES,further results
–,≤ 10,0.053,0.37,5.27,107,0.147,4.02,282,–,COn1cnc2ccc(Oc3c(F)ccc(NS(=O)(=O)N4CC[C@@H](F)C4)c3C#N)cc2c1=O [Compound 4],–
–,≤ 10,–,–,–,–,–,–,–,–,Cn1cnc2ccc(Oc3c(F)ccc(NS(=O)(=O)N4CC(CF)C4)c3C#N)cc2c1=O [Compound 14],–
–,≤ 10,0.0179,0.119,12.8,266,0.114,8.68,832,78.1,N#Cc1c(NS(=O)(=O)N2CC3(CCC3)C2)ccc(F)c1Oc1ccc2ncn(CCF)c(=O)c2c1 [Compound 26],–
≤ 10,–,–,–,–,–,–,–,–,–,N#Cc1c(NS(=O)(=O)N2CC3(CCC3(F)F)C2)ccc(F)c1Oc1ccc2ncn(CC(F)F)c(=O)c2c1 [Compound 42],–
≤ 10,–,–,–,–,–,–,–,–,–,N#Cc1c(NS(=O)(=O)N2CC3(CC3)C2)ccc(F)c1Oc1ccc2ncn(CCF)c(=O)c2c1 [Compound 47],"AUC(0-t) (Rat pharmacokinetic test; [10]): 4256.852 µg·h/mL; T1/2 (Rat pharmacokinetic test; [10]): 60.6 h; AUC(0-t) (Rat pharmacokinetic test; [11]): 1156.844 µg·h/mL; CL (Rat pharmacokinetic test; [11]): 0.036 mL/min/kg; T1/2 (Rat pharmacokinetic test; [11]): 50.9 h; Vdss (Rat pharmacokinetic test; [11]): 0.156 L/kg; F (Rat pharmacokinetic test; rat, intragastric administration 10 mg/kg): 92%"
≤ 10,–,–,–,–,–,–,–,–,–,N#Cc1c(NS(=O)(=O)N2CC3(CC3)C2)ccc(F)c1Oc1ccc2ncn3ccnc3c2c1 [Compound 49],–
